A short description of series [1]: Moisture content of powder after atmospheric spray freeze drying, original equipment. In kind it is physicochemical. To be noted: 15 wt % mannitol aqueous solution; dried 1 hr at around -15° C., then raised to room temperature within 30 minutes. The procedure:
The apparatus is allowed to run for approximately 5 to 15 minutes to reach the desired temperature in the chamber 110, 210, 310 via gas cooled by a refrigeration system providing gas flow into the chamber 110 through the porous wall. The aqueous solution or suspension of the substances to be dried is then sprayed using the atomizer 102, 202, 302 and frozen simultaneously at a chosen temperature by the surrounding curtain of liquid nitrogen generated from ring nozzle 218, 318 or an equivalent such as cryogenic flow from nozzles 118 through porous sidewalls of chamber 110. The frozen powder is conveyed down to the exit filter 122, 222, 322 by the concurrent downstream flow. After spray freezing, drying begins. The frozen powder collected on the exit filter 122, 222, 322, at the bottom is dried continuously at atmospheric pressure until the target moisture of the frozen powder is removed by the cold desiccated gas stream. After atmospheric spray-freeze drying, a loose powder remains on the exit filter 122, 222, 322. This powder can easily be broken up into free flowing, dry porous particles usually of approximately the same size and shape as the original frozen droplets.
In one example, powder was produced using the method described above. […] The moisture content was measured to be only 0.9 wt %.

Series [2] is described as follows: Moisture content of powder after ASFD run, second generation equipment. As to conditions: 10% BGG aqueous solution, 50 ml; spray gas 5 SCFM, drying 20 SCFM; after three hours and thirty minutes. In kind it is physicochemical.
Method: A typical ASFD run to dry Bovine Gamma Globulin (BGG) was conducted per a stepwise procedure like the following example. A solution of BGG was prepared such that the BGG constituted 10% by weight of an aqueous solution. Once the inner chamber was cooled to a temperature of −140° F., 50 ml of solution was sprayed at a rate of 1 ml per second and at a pressure of 40 psi into the reactor chamber after the flow of cooling gas had been decreased to 5 SCFM. A flow rate of 20 SCFM was then set for drying. Temperature during the first hour was set at 30° F., and increased by five degrees at hour two and hour three. […] After three hours and thirty minutes the powder was removed from the chamber and tested for water content.

The molecule `OC[C@@H](O)[C@@H](O)[C@H](O)[C@H](O)CO` [mannitol] registered a moisture content in series [1] of 0.9 wt %.

On to Bovine Gamma Globulin [BGG], for which the moisture content in series [2] is on record as 4.2%.

For the origin of these results see patent US9863701B2, “Compositions and methods for atmospheric spray freeze drying” (Aerosol Therapeutics, LLC, priority 2013, dated 2018).
